Results reported in ChEMBL document CHEMBL1125891, “Synthesis, molecular modeling studies, and muscarinic receptor activity of azaprophen analogues” (J Med Chem, 1991).
Values joined by “and” are separate entries in the source; they are usually repeats but may differ in a detail not shown here. Equal values may be shown once.

Assays:
[1] = molecular target: T1, Muscarinic acetylcholine receptor M3 (Rattus norvegicus, UniProt P08483); test: Binding activity against rat muscarinic acetylcholine receptor M3 using [3H]QNB as the radioligand
[2] = molecular target: T2, Muscarinic acetylcholine receptor M1 (Rattus norvegicus, UniProt P08482); test: Binding activity against rat muscarinic acetylcholine receptor M1 using [3H]QNB as the radioligand
T2 sequence (P08482 whole entry): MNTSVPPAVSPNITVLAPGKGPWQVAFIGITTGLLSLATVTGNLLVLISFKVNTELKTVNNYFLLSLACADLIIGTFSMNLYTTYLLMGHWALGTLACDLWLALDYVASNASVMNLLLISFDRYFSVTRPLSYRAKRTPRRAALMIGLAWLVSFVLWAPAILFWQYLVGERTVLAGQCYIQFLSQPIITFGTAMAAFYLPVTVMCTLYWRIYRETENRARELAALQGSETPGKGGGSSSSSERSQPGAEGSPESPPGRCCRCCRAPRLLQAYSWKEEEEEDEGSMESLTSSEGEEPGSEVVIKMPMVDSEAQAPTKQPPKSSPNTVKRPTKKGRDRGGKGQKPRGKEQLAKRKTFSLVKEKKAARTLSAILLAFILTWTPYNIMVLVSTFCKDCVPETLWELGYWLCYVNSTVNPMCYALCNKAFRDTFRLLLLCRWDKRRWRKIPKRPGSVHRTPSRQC

[3] = molecular target: Muscarinic acetylcholine receptor; test: Inhibition of [3H]QNB binding against muscarinic acetylcholine receptor in guinea pig ileum; format: tissue-based, Cavia porcellus
[4] = molecular target: Muscarinic acetylcholine receptor
Description: Inhibition of [3H]QNB binding against muscarinic acetylcholine receptor in rat brain.

[5] = molecular target: Muscarinic acetylcholine receptor; remark: listed apart in the source
Description: Inhibition of [3H]OXO-M binding against muscarinic acetylcholine receptor in rat brain membranes

[6] = molecular target: T2, Muscarinic acetylcholine receptor M1; test: The compound was tested for binding activity against muscarinic acetylcholine receptor M1, using [3H]QNB as the radioligand.
[7] = molecular target: T1, Muscarinic acetylcholine receptor M3; test: The compound was tested for binding activity against muscarinic acetylcholine receptor M3, using [3H]-QNB as the radioligand.
[8] = molecular target: Muscarinic acetylcholine receptor; test: Inhibition of methacholine induced phasic contraction of guinea pig ileum; format: functional, tissue-based, Cavia porcellus
[9] = molecular target: Muscarinic acetylcholine receptor; test: Inhibition of [3H]pirenzepine binding against muscarinic acetylcholine receptor in rat brain.; format: tissue-based
[10] = molecular target: Muscarinic acetylcholine receptor; test: Inhibition of [3H]QNB binding against muscarinic acetylcholine receptor in rat heart.
Cavia porcellus [11] = species: Cavia porcellus; test: Inhibition against methacholine induced phasic contraction in guinea pig ileum; format: functional; conditions: read-out: pA2 (converted)
Cavia porcellus [12] = species: Cavia porcellus; test: The compound was tested for inhibition against methacholine induced tonic contraction in guinea pig ileum.; format: functional; conditions: read-out: pA2 (converted)
Cavia porcellus [13] = species: Cavia porcellus; test: The compound was tested for inhibition against tonic contraction in guinea pig ileum.; format: functional; conditions: read-out: pA2 (converted)
Cavia porcellus [14] = species: Cavia porcellus; test: Inhibition of methacholine induced tonic contraction of guinea pig ileum; format: functional
Cavia porcellus [15] = species: Cavia porcellus; test: The compound was tested for inhibition against methacholine induced tonic contraction in guinea pig ileum; format: functional; conditions: read-out: pA2 (converted)
[16] = molecular target: Muscarinic acetylcholine receptor; test: The compound was tested for inhibition of [3H]OXO-M binding against muscarinic acetylcholine receptor in rat brain membranes; format: cell membranes

T1 sequence (P08483 whole entry): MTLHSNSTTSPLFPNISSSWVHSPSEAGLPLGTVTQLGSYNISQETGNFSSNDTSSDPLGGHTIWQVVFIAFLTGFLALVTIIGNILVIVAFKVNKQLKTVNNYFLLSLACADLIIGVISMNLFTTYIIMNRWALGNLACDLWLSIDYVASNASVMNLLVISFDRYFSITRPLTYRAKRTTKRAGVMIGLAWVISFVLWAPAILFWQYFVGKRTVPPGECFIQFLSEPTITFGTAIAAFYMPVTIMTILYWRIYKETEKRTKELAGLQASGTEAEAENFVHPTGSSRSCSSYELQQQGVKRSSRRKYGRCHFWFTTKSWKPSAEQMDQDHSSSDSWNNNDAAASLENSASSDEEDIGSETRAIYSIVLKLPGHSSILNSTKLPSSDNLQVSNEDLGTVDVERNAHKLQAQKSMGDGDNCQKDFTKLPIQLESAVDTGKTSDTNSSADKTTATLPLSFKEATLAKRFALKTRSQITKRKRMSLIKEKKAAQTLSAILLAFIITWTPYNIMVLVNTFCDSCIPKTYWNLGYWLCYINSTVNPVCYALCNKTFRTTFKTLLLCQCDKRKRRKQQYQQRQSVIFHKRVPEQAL

SMILES	Ki [1] [nM]	Ki [2] [nM]	Ki [3] [nM]	Ki [4] [nM]	Ki [5] [nM]	Ki [6] [nM]	Ki [7] [nM]	-Log Kd [8]	Ki [9] [nM]	Ki [10] [nM]	Kb (Cavia porcellus [11]) [nM]	Kb (Cavia porcellus [12]) [nM]	Kb (Cavia porcellus [13]) [nM]	-Log Kd (Cavia porcellus [14])	Kb (Cavia porcellus [15]) [nM]	Ki [16] [nM]
CC(=O)O[C@H]1CC2CC(C1)N(C)C2 (single isomer, unassigned; (-))	4970	7210	4190	3730	6550	–	–	–	–	–	–	–	–	–	–	–
CN1CC2CC1C[C@@H](OC(=O)C(C)(c1ccccc1)c1ccccc1)C2 (single isomer, unassigned; (+))	–	–	0.054	0.0297	–	0.0383	0.0986	–	–	–	–	–	–	–	–	–
CC(=O)O[C@H]1CC2CC(C1)N(C(C)c1ccccc1)C2 (some centres not stated)	3380	2770	4570	3530	113	–	–	–	–	–	–	–	–	–	–	–
CC(C(=O)O[C@H]1CC2CC(C1)N(Cc1ccccc1)C2)(c1ccccc1)c1ccccc1 (some centres not stated)	12.5	10.9	12.8	9.53	–	–	–	8.04	27.9	9.28	6.17	5.62	5.62	8.03	–	–
CC(=O)O[C@@H]1C[C@@H]2C[C@H](C1)N([C@H](C)c1ccccc1)C2 (stereo in doubt; 12)	29900	23100	12900	19100	23300	–	–	–	–	–	–	–	–	–	–	–
CC(=O)O[C@H]1CC2CC(C1)N(C)C2 (stereo in doubt; 8)	8990	9200	8400	7530	1150	–	–	–	9810	–	–	–	–	–	–	–
CN1CC2CC1C[C@@H](OC(=O)C(C)(c1ccccc1)c1ccccc1)C2 (single isomer, unassigned; (-))	10.7	7.89	14.5	6.36	–	–	–	–	–	–	–	–	–	–	–	–
CN1CC2CC1C[C@H](OC(=O)C(C)(c1ccccc1)c1ccccc1)C2 (some centres not stated)	9.28	2.94	9.64	4.2	–	–	–	8.44	12.7	12.9	1.86	–	–	8.75	1.91	–
CC(=O)O[C@@H]1CC2CC(C1)N(C)C2 (single isomer, unassigned; (+))	11300	7110	10400	6470	10400	–	–	–	–	–	–	–	–	–	–	–
CC(=O)O[C@@H]1CC2CC(C1)N(C)C2 (single isomer, unassigned; (-))	46700	22100	38100	23000	33900	–	–	–	–	–	–	–	–	–	–	–
CC(=O)O[C@@H]1C[C@@H]2C[C@H](C1)N([C@H](C)c1ccccc1)C2 (stereo in doubt; 13)	4280	9180	3750	4710	4150	–	–	–	–	–	–	–	–	–	–	–
CN1CC2CC1C[C@H](OC(=O)C(c1ccccc1)c1ccccc1)C2 (some centres not stated)	11.2	4.75	19.1	4.07	–	–	–	8.27 and 8.32	5.73	16.9	1.55	–	–	–	1.82	–
CN1CC2CC1C[C@@H](OC(=O)C(c1ccccc1)c1ccccc1)C2 (some centres not stated)	4.3	1.23	8.21	1.89	–	–	–	8.45	2.87	5.49	1.74	–	–	–	1.86	–
CC(=O)O[C@@H]1CC2CC(C1)N(C)C2 (stereo in doubt; 9)	14100	8620	11900	8550	7820	–	–	–	12500	–	–	–	–	–	–	–
CN1CC2CC1C[C@@H](OC(=O)C(C)(c1ccccc1)c1ccccc1)C2 (stereo in doubt; 1)	0.472	0.0881	0.279	0.13	–	–	–	10.46	0.118	0.196	0.0741	–	–	–	–	–
CC(=O)O[C@H]1CC2CC(C1)N(C)C2 (single isomer, unassigned; (+))	19700	13900	21000	8560	–	–	–	–	–	–	–	–	–	–	–	2170
CC(=O)O[C@H]1CC2CC(C1)N([C@H](C)c1ccccc1)C2 (some centres not stated)	14900	12800	7700	10100	1950	–	–	–	–	–	–	–	–	–	–	–
